# Reference: a melting point compilation (Tetko et al.; mined from patent text by program, amines drawn as free bases though some values may be those of a salt)
row,SMILES,melting point
1,Cn1c(COc2ccc(CC3SC(=O)NC3=O)cc2)nc2ccc(Oc3ccc(NC(=S)Nc4cccc5ccccc45)cc3)cc21 (centres undefined),186 to 188 °C
2,CN(C(=O)NCCO)C1c2ccccc2Oc2ccccc21,130 to 132 °C
3,CCCOc1nc2cccc(C(=O)OCC)c2n1Cc1ccc(-c2ccccc2C#N)cc1,90 to 92 °C
4,COC1=C(OC)C(=O)C(CCCCCCCCCC(=O)N[C@@H](CCSC)C(=O)O)=C(C)C1=O,83 to 85 °C
5,CCCCc1nc(SCCF)c(C(=O)O)n1Cc1ccc(-c2ccccc2C(=O)O)cc1,185 to 186 °C
6,Cc1ccc2oc([N+](=O)[O-])c(-c3ccccc3)c2c1,144 to 146 °C
7,COc1ccc(CC(=O)NC(NC(=NC#N)Nc2cc(C)ccc2C)C(C)(C)C)cc1OC (centres undefined),93 to 94 °C
8,CC(C)(C)c1ccc(C(=O)Nc2cn3nc(-c4cnn(CCO)c4)ccc3n2)cc1,226 to 229 °C
9,CCOC(=O)C1CCN(C(=O)c2[nH]c(C)c(-c3nc4ccc(C(=O)c5ccccc5)cc4[nH]3)c2C)CC1,272 to 274 °C
10,COc1ccc(CC(=O)Nc2cc(Cl)c(Cl)cc2[N+](=O)[O-])cc1,124 to 126 °C
11,CCOC(=O)Nc1ccccc1SCc1ncon1,55 °C
12,COC(=O)Cc1nc(N)cc(OC)n1,91 to 94 °C
13,Nc1cc(-c2ccccc2)cc2nc(-c3ccccc3)nn12,214 to 216 °C
14,CCc1cn(C2CC(O)C(CNC(=O)Cc3cccs3)O2)c(=O)[nH]c1=O (centres undefined),215 to 217 °C
15,CCC(C)OC(=O)CNC(=O)[C@@H](Cc1ccccc1)CN1CC[C@@](C)(c2cccc(O)c2)[C@@H](C)C1 (some centres undefined),94 °C
16,CC(=O)Nc1cc2c(cc1[N+](=O)[O-])OC(C)(C)[C@@H](O)[C@@H]2NC(=O)CCCCl (relative stereo),178 to 180 °C
17,Cc1cc2c(=O)c(N3CCC(O)(c4ccc(F)cc4)CC3)coc2cc1OCc1ccccc1,245 to 246 °C
18,O=C(NCCO)c1cccc(-c2ccc(F)c3cc(Cc4cccc(C(F)(F)F)c4)oc23)c1,159 to 160 °C
19,CN(SC(Cl)(Cl)Cl)C(=O)ON=C1SCC(=O)NC1(C)C,189 to 190 °C
20,O=C(CCl)NC1(c2ccccc2Cl)C(=O)Nc2ccc(Cl)cc21 (centres undefined),230 °C
21,CCc1cnc2c(c1)ON(C(C)(C(N)=O)C(C)C)O2 (centres undefined),114 to 117 °C
22,Fc1cccc(CNC(=S)N2CCc3c([nH]c4ccccc34)C2c2ccc3c(c2)OCO3)c1 (centres undefined),179 to 181 °C
23,COc1cc(Cl)ccc1N=c1scc(-c2ccc(Cl)c(S(=O)(=O)N(C)C)c2)n1C,148 to 150 °C
24,CCn1cc(C(=O)NCCc2ccncc2)c(=O)c2cc(F)cc(C)c21,243 to 245 °C
25,NC(=O)NC1CCC(OC(=O)c2ccccc2)c2sccc21 (centres undefined),199 to 205 °C
26,Cc1oc(-c2ccccc2Cl)nc1CCOc1ccc([N+](=O)[O-])cn1,100 to 101 °C
27,COc1ccc(-c2coc(C(=O)O)cc2=O)cc1,232 to 234 °C

row,SMILES,melting point
1,CC(Oc1ccc(Cl)c(Cl)c1)c1nnc(N)s1 (centres undefined),136 to 138 °C
2,COc1ccc2c(C(=O)O)ccc(OC)c2c1,227 to 229 °C
3,CCCCCC(Oc1ccc(C2=CCCCC2)cc1)C(=O)NC(C)C (centres undefined),86 to 88 °C
4,CC(=O)NC(=Cc1ccc(F)cc1)C(=O)OCCC(F)=C(F)F,116 °C
5,CN(C)c1ncc(C(=O)NCc2ccccc2)c(S)n1,175 to 178 °C
6,COc1cc(OC)nc(NC(=O)NS(=O)(=O)c2c(Cl)cccc2Cn2cncn2)n1,220 to 221 °C
7,CCOC(=O)C1=C(C)NC(=S)N(C(=O)OCC)C1c1ccc(OC)cc1 (centres undefined),130 to 132 °C
8,CNC(=O)c1cc2c(nc(C)n2C)c2c1CCC(c1ccccc1)O2 (centres undefined),291 to 292 °C
9,CS(=O)(=O)Nc1cc(NC(=O)CCl)ccc1Oc1ccccc1,126 to 128 °C
10,CC1Cc2ccc(Cl)cc2C(c2ccc([N+](=O)[O-])cc2)=NN1C(=O)C(F)(F)F (centres undefined),150 to 152 °C
11,Cn1ncc2c(=O)n3ccsc3nc21,220 to 221 °C
12,CCOc1cc([N+](=O)[O-])c(N)cc1C(=O)OC,156 to 157 °C
13,OCc1cccn2cc(-c3ccccc3)nc12,85 to 87 °C
14,CNC(=O)Oc1ccc(NS(=O)(=O)c2ccc(C)cc2)c(C)c1,181 to 184 °C
15,CC(C)c1nn(-c2ccc(C(F)(F)F)cn2)cc1CCCCOc1cc(CCC(=O)O)n(-c2ccccc2)n1,137 to 138 °C
16,O=c1c2c(F)cccc2nc(CSc2ncnc3[nH]cnc23)n1-c1ccccc1Cl,223 to 224 °C
17,CN(Cc1ccc(Cl)nc1)C(N)=N[N+](=O)[O-],158 °C
18,CC(CO)c1ccc(-c2ccccc2)c(F)c1 (centres undefined),61 to 63 °C
19,Cc1cc(C(=O)N2Cc3cccn3Cc3ccccc32)ccc1NC(=O)c1ccccc1C,125 to 130 °C
20,CCOC(=O)c1cn2c3c(c(F)c(F)c(F)c3c1=O)C(C(=O)OC(C)(C)C)(C(=O)OC(C)(C)C)CN2C,169 to 173 °C
21,O=C(O)c1ccc2c(Br)cccc2c1,248 to 250 °C
22,COc1ccc(-n2nc(OC(C)C)cc2-c2ccc(OCCNS(C)(=O)=O)cc2)cc1,168 °C
23,Cc1nc(=O)n(-c2cc(C(=O)OC(C)C)c(Cl)cc2F)c(N)c1C#N,255 to 257 °C
24,OC1(c2cncnc2)CN2CCC1CC2 (centres undefined),126 to 127 °C
25,COC(=O)c1ccc(OCCNC(=O)c2ccc(F)cc2)cc1,105 to 107 °C
26,CC(C)(C)c1ccc(-c2ccc3c(C(N)=O)nn(-c4ccc(S(N)(=O)=O)cc4)c3c2)cc1,262 to 263 °C

# More lines, now with the values ahead:
row,melting point,SMILES
1,141 to 143 °C,CC(C)(C)OC(=O)n1cc(C(=O)C2CSC(c3cccnc3)N2C(N)=O)c2ccccc21 (centres undefined)
2,270 °C,O=C(NCCCCN1CCC(c2ccc3ccccc3c2)CC1)c1ccc(NC(=O)c2ccc(Cl)cc2)cc1
3,141 to 143 °C,CCCCNC(=O)NCC1CCN(c2ncnc3cc(OC)c(OC)cc23)CC1
4,169 to 171 °C,O=C1C(=O)N2c3c(cccc31)OCC2c1ccccc1 (centres undefined)
5,60 to 62 °C,CC(CBr)(CBr)C(=O)O
6,124 to 126 °C,CCn1ncc2c1ncc1c(NCCN(C)C)nc3cc(C)nn3c12
7,140 °C,Cc1nccc(O)c1[N+](=O)[O-]
8,187 to 188 °C,CC(C)(C)OC(=O)N[C@@H](Cc1ccccc1)[C@@H](O)C[C@@H](Cc1ccccc1)c1ncn[nH]1
9,263 to 265 °C,CC(=O)Nc1ccc([N+](=O)[O-])cc1-c1cc([N+](=O)[O-])ccc1NC(C)=O
10,187 to 189 °C,COc1ccccc1C=CC=C(CC(N)C(=O)O)C(=O)O (centres undefined)
11,116 to 117 °C,N#Cc1ccccc1Sc1nsc2ccccc12
12,108 to 111 °C,CCCCOC(=O)NS(=O)(=O)CCc1cc(OCCCC)nn1Cc1ccc(Cl)cc1Cl
13,71 to 75 °C,CC(c1oc2ccccc2c(=O)c1-c1cccc(F)c1)n1ccc2c(Cl)ncnc21 (centres undefined)
14,250 to 251 °C,CC(C)(C)c1ccc(C(=O)Nc2cn3cc(Cl)ccc3n2)cc1
15,175 °C,Cc1ccc(C(C)(C)C)c(SC2=C(O)CC(CCc3ccccc3)(c3ccc(OCCN4CCNCC4)cc3)OC2=O)c1 (centres undefined)
16,220 °C,NC(=O)c1[nH]cnc1OC(=O)c1ccc(Cl)cc1
17,142 to 146 °C,Cc1nn(CC(F)(F)COC(=O)CN)c(-c2ccc(F)cc2)c1-c1ccc2c(c1)NC(=O)CO2
18,168 °C,O=c1ncc(I)cn1COCc1ccc(Cl)cc1
19,95 to 98 °C,CC(C)(CN(Cc1ccccc1)C(=O)CCC(=O)O)SN=O
20,70 °C,CNc1ccc(Cl)nc1
21,225 °C,CC(=O)NC(=Cc1c[nH]c2cc(Cl)ccc12)C(=O)O
22,147 to 148 °C,N#Cc1cnn(-c2ccc(CBr)cc2)n1
23,132 to 135 °C,CCOC(=O)CCc1cc(O)nn1C

row,melting point,SMILES
1,92 to 93 °C,O=C1CCCN1C(=O)Oc1ccccc1Cl
2,90 to 91 °C,O=C(O)c1c(Br)cc(OCc2ccccc2)cc1OCc1ccccc1
3,172 to 174 °C,Cc1ccc(N2C(=O)NC(=O)C23CCN(C)CC3)cc1
4,196 to 198 °C,O=C(CCSCCSCCSCCC(=O)Nc1ccc(Nc2ccccc2)cc1)Nc1ccc(Nc2ccccc2)cc1
5,33 to 34 °C,COC1=C(OC)C(=O)C(CCCCC[C@H]2CC[C@H](OC(C)=O)CC2)=C(C)C1=O
6,152 to 154 °C,CCCN1C(=O)N2C(=NCC2c2ccccc2)c2c1ncn2C (centres undefined)
7,97 to 99 °C,CCN(CC)CCNC(=O)c1cc(Cl)c(N)cc1OCCN
8,131 to 132 °C,COC(=O)c1ccc(Oc2c(-c3ccc(OCc4ccccc4)cc3)c(C(F)(F)F)cc3ccccc23)cc1
9,152 to 153 °C,O=C1c2ccccc2C(=O)N1c1cc(CCl)ccn1
10,169 to 170 °C,Cc1cc(C)c(-n2ccc3c(Cl)nnc(Cl)c32)c(C)c1
11,150 to 151 °C,O=C(NCCCCCCCNC(=O)c1ccc(OC(F)(F)F)cc1)c1ccc(OC(F)(F)F)cc1
12,164 to 166 °C,CCCc1ccccc1OCCCOc1ccc2c(=O)cc(C(=O)O)oc2c1
13,119 to 122 °C,OCc1ccc(Nc2ccccc2)nc1
14,200 to 203 °C,N#Cc1ccc(C(=O)OCc2ccc[nH]c2=O)cc1
15,115 to 125 °C,COc1ccc(S(=O)(=O)N2C(=O)[C@@](c3ccccc3OC)(N3C[C@H](OC(N)=O)C[C@H]3C(=O)N(C)C)c3cc(Cl)ccc32)c(OC)c1
16,228 to 232 °C,N#Cc1ccc(C(=O)N2CCc3c([nH]c4ccccc34)C2)cc1
17,179 to 181 °C,CS(=O)(=O)c1ccc(-c2cnn(CC(F)(F)F)c(=O)c2Oc2ccc(C#N)cc2)cc1
18,170 °C,O=C(CCc1ccc(O)c(C=Nc2ccccc2O)c1)ON1C(=O)CCC1=O
19,154 to 156 °C,Cc1nc2cnccc2n1-c1ccc(CO)cc1
20,197 to 198 °C,CCOC(=O)c1nc(-c2ccc(F)cc2)[nH]c1CC
21,122 to 124 °C,Cc1[nH]c2ccc(CCN(C)C3CCCCC3)cc2c1C(=O)OCc1ccccc1
22,145 °C,O=Cc1cc(O)c2c(c1O)CCCC2
23,99 to 100 °C,COC(=O)N[C@@H]1CCc2ccc(Br)cc2C1
